Laboratory results as given in patent publication US7244727B2, “Fused bicyclic nitrogen-containing heterocycles” (Japan Tobacco Inc., priority 2002, dated 2007).
Values joined by “and” are separate entries in the source; they are usually repeats but may differ in a detail not shown here. Identical values can stand only once.

Tests used:
[1] = molecular target: T1, human DGAT1 (Homo sapiens, UniProt O75907); assay: DGAT Scintillation Proximity Assay (SPA) with membranes of insect cells expressing human flagtag DGAT1; type: biochemical; conditions: read-out: hDGAT1 IC50
T1 construct: made in house; host or cells: insect cells (sf9, sf21 or High Five) infected with baculovirus; total cell membranes
T1 sequence (O75907 1-488): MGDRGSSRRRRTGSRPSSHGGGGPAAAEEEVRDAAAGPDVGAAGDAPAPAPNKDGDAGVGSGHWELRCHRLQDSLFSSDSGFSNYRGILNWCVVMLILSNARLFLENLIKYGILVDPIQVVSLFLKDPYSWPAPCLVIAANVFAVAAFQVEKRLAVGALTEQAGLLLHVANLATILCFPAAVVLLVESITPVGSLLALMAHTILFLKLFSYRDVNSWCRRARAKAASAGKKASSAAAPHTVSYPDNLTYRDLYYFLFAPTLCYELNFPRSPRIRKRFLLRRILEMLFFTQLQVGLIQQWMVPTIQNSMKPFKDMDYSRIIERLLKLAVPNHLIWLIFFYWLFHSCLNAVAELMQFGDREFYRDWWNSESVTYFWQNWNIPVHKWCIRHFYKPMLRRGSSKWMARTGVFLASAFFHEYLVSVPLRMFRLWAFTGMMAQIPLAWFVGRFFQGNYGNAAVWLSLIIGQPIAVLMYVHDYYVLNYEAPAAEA
In short: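 Membranes (0.2 μg/well) from insect cells expressing human flag-tagged DGAT1 incubated with 10 μM compound and 200 μM dioleoyl glycerol substrate; mercuric chloride as inhibition control. Reaction stopped with WGA SPA beads in mercuric chloride, overnight bead coupling, then scintillation proximity signal read.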

Row | Structure (SMILES) | IC50 [1] | melting point
1 | CN(CC(=O)O)C(=O)[C@H]1CC[C@H](c2ccc(C3=Nc4c(N)ncnc4OC3(C)C)cc2)CC1 [Example 2-219] | 0.01 to 0.1 µM | 243 to 248 °C
2 | CC1(C)Oc2ncnc(N)c2NC1c1ccc([C@H]2CC[C@H](CS(N)(=O)=O)CC2)cc1 (stereo partly shown) [Example 2-221] | > 0.1 µM | > 250 °C
3 | CC1(C)Oc2ncnc(N)c2NC1c1ccc([C@H]2CC[C@H](NS(N)(=O)=O)CC2)cc1 (stereo partly shown) [Example 2-222] | > 0.1 µM | > 250 °C
4 | CC1(C)Oc2ncnc(N)c2N=C1c1ccc([C@H]2CC[C@H](CN3CCCCC3)CC2)cc1 [Example 2-224] | > 0.1 µM | 169 to 171 °C
5 | CC1(C)Oc2ncnc(N)c2N=C1c1ccc([C@H]2CC[C@H](CN3CCC(CCO)CC3)CC2)cc1 [Example 2-227] | > 0.1 µM | 198 to 200 °C
6 | CC1(C)Oc2ncnc(N)c2N=C1c1ccc([C@H]2CC[C@H](CN3CCC(Cc4ccccc4)CC3)CC2)cc1 [Example 2-228] | > 0.1 µM | 119 to 120 °C
7 | CC1(C)Oc2ncnc(N)c2N=C1c1ccc([C@H]2CC[C@H](CN3CCCC3)CC2)cc1 [Example 2-229] | > 0.1 µM | 160 to 162 °C
8 | CC(C)(C)OC(=O)N1CCN(C[C@H]2CC[C@H](c3ccc(C4=Nc5c(N)ncnc5OC4(C)C)cc3)CC2)CC1 [Example 2-232] | 0.01 to 0.1 µM | 171 to 172 °C
9 | CC(O)[C@H]1CC[C@H](c2ccc(C3=Nc4c(N)ncnc4OC3(C)C)cc2)CC1 (stereo partly shown) [Example 2-233] | > 0.1 µM | 224 to 229 °C
10 | CC1(C)Oc2ncnc(N)c2N=C1c1ccc([C@H]2CC[C@H](NC(=O)CO)CC2)cc1 [Example 2-234] | 0.01 to 0.1 µM | 226 to 230 °C
11 | CC1(C)Oc2ncnc(N)c2N=C1c1ccc([C@H]2CC[C@H](C(=O)N3CCCC3)CC2)cc1 [Example 2-235] | 0.01 to 0.1 µM | 201 to 202 °C
12 | CC1(C)Oc2ncnc(N)c2N=C1c1ccc([C@H]2CC[C@H](C(=O)N3CCCCC3)CC2)cc1 [Example 2-236] | 0.01 to 0.1 µM | 220 to 224 °C
13 | CC1(C)Oc2ncnc(N)c2N=C1c1ccc([C@H]2CC[C@H](C(=O)N3CCC(O)CC3)CC2)cc1 [Example 2-237] | 0.01 to 0.1 µM | 250 to 252 °C
14 | CN1CCN(C(=O)[C@H]2CC[C@H](c3ccc(C4=Nc5c(N)ncnc5OC4(C)C)cc3)CC2)CC1 [Example 2-238] | > 0.1 µM | 190 to 191 °C
15 | CC1(C)Oc2ncnc(N)c2N=C1c1ccc([C@H]2CC[C@H](C(=O)N3CCOCC3)CC2)cc1 [Example 2-239] | > 0.1 µM | 233 to 235 °C
16 | CC1(C)Oc2ncnc(N)c2N=C1c1ccc([C@H]2CC[C@H](CN3CCN(S(C)(=O)=O)CC3)CC2)cc1 [Example 2-240] | 0.01 to 0.1 µM | 233 to 235 °C
17 | CC(C)C(=O)N1CCN(C[C@H]2CC[C@H](c3ccc(C4=Nc5c(N)ncnc5OC4(C)C)cc3)CC2)CC1 [Example 2-241] | 0.01 to 0.1 µM | 120 to 126 °C
18 | CN(C[C@H]1CC[C@H](c2ccc(C3=Nc4c(N)ncnc4OC3(C)C)cc2)CC1)C(=O)CO [Example 2-243] | 0.01 to 0.1 µM | 208 to 210 °C
19 | CC1(C)Oc2ncnc(N)c2N=C1c1ccc([C@H]2CC[C@H](CN3CCNCC3)CC2)cc1 [Example 2-244] | 0.01 to 0.1 µM | 208 to 209 °C
20 | CCCNC(=O)N1CCN(C[C@H]2CC[C@H](c3ccc(C4=Nc5c(N)ncnc5OC4(C)C)cc3)CC2)CC1 [Example 2-245] | 0.01 to 0.1 µM | 180 to 182 °C
21 | CC1(C)Oc2ncnc(N)c2N=C1c1ccc([C@H]2CC[C@H](CN3CCN(C(N)=O)CC3)CC2)cc1 [Example 2-246] | 0.01 to 0.1 µM | 158 to 160 °C
22 | CC1(C)Oc2ncnc(N)c2N=C1c1ccc([C@H]2CC[C@H](CN3CCN(C(=O)CO)CC3)CC2)cc1 [Example 2-247] | 0.01 to 0.1 µM | 205 to 206 °C
23 | CC(C)(O)C(=O)N1CCN(C[C@H]2CC[C@H](c3ccc(C4=Nc5c(N)ncnc5OC4(C)C)cc3)CC2)CC1 [Example 2-248] | 0.01 to 0.1 µM | 207 to 208 °C
24 | CC(=O)N1CCN(C[C@H]2CC[C@H](c3ccc(C4=Nc5c(N)ncnc5OC4(C)C)cc3)CC2)CC1 [Example 2-249] | 0.01 to 0.1 µM | 202 to 203 °C
25 | CC1(C)Oc2ncnc(N)c2N=C1c1ccc([C@H]2CC[C@H](C(=O)N3C[C@@H](O)[C@@H](O)C3)CC2)cc1 [Example 2-250] | 0.01 to 0.1 µM | 220 to 240 °C

Row | Structure (SMILES) | IC50 [1] | melting point
26 | CC1(C)Oc2ncnc(N)c2N=C1c1ccc([C@H]2CC[C@H](CN3CCC(C(N)=O)CC3)CC2)cc1 [Example 2-251] | 0.01 to 0.1 µM | 159 to 164 °C
27 | CCNS(=O)(=O)C[C@H]1CC[C@H](c2ccc(C3=Nc4c(N)ncnc4OC3(C)C)cc2)CC1 [Example 2-252] | 0.01 to 0.1 µM | 209 to 211 °C
28 | CC1(C)Oc2ncnc(N)c2N=C1c1ccc([C@H]2CC[C@H](CSCC(=O)O)CC2)cc1 [Example 2-253] | < 0.01 µM | 248 °C (dec.)
29 | CC1(C)Oc2ncnc(N)c2N=C1c1ccc([C@H]2CC[C@H](C(=O)CO)CC2)cc1 [Example 2-254] | 0.01 to 0.1 µM | 213 to 214 °C
30 | Cc1nc(N)c2c(n1)OC(C)(C)C(c1ccc([C@H]3CC[C@H](C(=O)O)CC3)cc1)=N2 [Example 2-255] | 0.01 to 0.1 µM | > 250 °C
31 | Cc1nc(N)c2c(n1)OC(C)(C)C(c1ccc([C@H]3CC[C@H](C(=O)NS(C)(=O)=O)CC3)cc1)=N2 [Example 2-256] | 0.01 to 0.1 µM | 172 to 175 °C
32 | Cc1nc(N)c2c(n1)OC(C)(C)C(c1ccc([C@H]3CC[C@H](C(=O)NC(C)(C)CO)CC3)cc1)=N2 [Example 2-257] | 0.01 to 0.1 µM | 220 to 225 °C
33 | Cc1nc(N)c2c(n1)OC(C)(C)C(c1ccc([C@H]3CC[C@H](C(=O)N4C[C@@H](O)[C@@H](O)C4)CC3)cc1)=N2 [Example 2-258] | 0.01 to 0.1 µM | > 250 °C
34 | Cc1nc(N)c2c(n1)OC(C)(C)C(c1ccc([C@H]3CC[C@H](CSCC(=O)O)CC3)cc1)=N2 [Example 2-259] | 0.01 to 0.1 µM | 271 to 277 °C
35 | Cc1nc(N)c2c(n1)OC(C)(C)C(c1ccc([C@H]3CC[C@H](CSC(C)(C)C(=O)O)CC3)cc1)=N2 [Example 2-260] | 0.01 to 0.1 µM | 235 to 239 °C
36 | Cc1nc(N)c2c(n1)OC(C)(C)C(c1ccc([C@H]3CC[C@H](CS(=O)(=O)CC(=O)O)CC3)cc1)=N2 [Example 2-261] | 0.01 to 0.1 µM | 225 to 227 °C
37 | Cc1nc(N)c2c(n1)OC(C)(C)C(c1ccc([C@H]3CC[C@H](C[S+]([O-])CC(=O)O)CC3)cc1)=N2 (stereo partly shown) [Example 2-262] | 0.01 to 0.1 µM | > 166 °C
38 | Cc1nc(N)c2c(n1)OC(C)(C)C(c1ccc([C@H]3CC[C@H](c4nn[nH]n4)CC3)cc1)=N2 [Example 2-263] | < 0.01 µM | > 250 °C
39 | Cc1nc(N)c2c(n1)OC(C)(C)C(c1ccc([C@H]3CC[C@H](C(=O)Nc4nn[nH]n4)CC3)cc1)=N2 [Example 2-264] | 0.01 to 0.1 µM | > 250 °C
40 | CC(=O)N1CCC(c2ccc(C3=Nc4c(N)ncnc4OC3(C)C)cc2)CC1 [Example 3-3] | > 0.1 µM | 232 to 237 °C
41 | CC1(C)Oc2ncnc(N)c2N=C1c1ccc(C2CCN(C(=O)C(=O)O)CC2)cc1 [Example 3] | 0.01 to 0.1 µM | 188 to 190 °C and 188.8 to 190.9 °C
42 | CCOC(=O)C1CCN(c2ccc(C3=Nc4c(N)ncnc4OC3(C)C)cc2)CC1 [Example 4-3] | > 0.1 µM | 176 to 177 °C
43 | CC1(C)Oc2ncnc(N)c2N=C1c1ccc(N2CCC(C(=O)O)CC2)cc1 [Example 4-4] | 0.01 to 0.1 µM | > 240 °C
44 | CCOC(=O)N1CCN(c2ccc(C3=Nc4c(N)ncnc4OC3(C)C)cc2)CC1 [Example 4-5] | > 0.1 µM | 174 to 175 °C
45 | CC1(C)Oc2ncnc(N)c2N=C1c1ccc(N2CCCC2)cc1 [Example 4-6] | > 0.1 µM | 191 to 196 °C
46 | CC1(C)Oc2ncnc(N)c2N=C1c1cccc(OCc2ccccc2)c1 [Example 5-2] | > 0.1 µM | 130 to 131 °C
47 | CC1(C)Oc2ncnc(N)c2N=C1c1cccc(OCC2CCCCC2)c1 [Example 5-3] | > 0.1 µM | 151 to 152 °C
48 | CC1(C)Oc2ncnc(N)c2N=C1c1cccc(Cl)c1 [Example 5] | > 0.1 µM | 117 to 133 °C and 117.2 to 133.4 °C
49 | Cc1nc(N)c2c(n1)OC(C)(C)C(c1ccc([C@H]3CC[C@H](CNC(=O)CO)CC3)c(Cl)c1)=N2 [Example 6-2] | 0.01 to 0.1 µM | 229 to 232 °C
50 | Cc1nc(N)c2c(n1)OC(C)(C)C(c1ccc([C@H]3CC[C@H](CC(=O)O)CC3)c(N)c1)=N2 [Example 6-3] | 0.01 to 0.1 µM | 280 °C (dec.)
